Test results reported in patent publication US9624214B2, “Amino-substituted imidazo[1,2-a]pyridinecarboxamides and their use” (BAYER PHARMA AKTIENGESELLSCHAFT, priority 2012, dated 2017).

Target: T1, recombinant guanylate cyclase reporter cell line (Rattus norvegicus, UniProt P19686+P20595)
T1 construct: expressed in transfected cells
T1 sequence (P20595 1-619): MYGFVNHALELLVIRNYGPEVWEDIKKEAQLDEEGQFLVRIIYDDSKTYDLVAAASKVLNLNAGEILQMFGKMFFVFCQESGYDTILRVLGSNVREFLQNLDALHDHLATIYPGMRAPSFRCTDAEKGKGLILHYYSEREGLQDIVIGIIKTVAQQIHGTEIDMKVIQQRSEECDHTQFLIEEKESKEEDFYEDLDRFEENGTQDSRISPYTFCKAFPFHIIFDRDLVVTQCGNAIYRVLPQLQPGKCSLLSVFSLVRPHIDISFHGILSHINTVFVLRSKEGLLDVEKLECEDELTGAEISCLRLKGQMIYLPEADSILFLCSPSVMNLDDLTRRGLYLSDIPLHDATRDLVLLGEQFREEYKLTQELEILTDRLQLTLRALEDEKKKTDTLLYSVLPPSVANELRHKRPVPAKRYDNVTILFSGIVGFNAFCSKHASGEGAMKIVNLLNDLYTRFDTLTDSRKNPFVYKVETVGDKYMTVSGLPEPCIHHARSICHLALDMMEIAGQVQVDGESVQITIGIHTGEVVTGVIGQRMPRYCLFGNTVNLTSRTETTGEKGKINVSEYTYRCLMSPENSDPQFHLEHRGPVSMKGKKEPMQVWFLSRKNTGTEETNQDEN
T1 sequence (P19686 1-690): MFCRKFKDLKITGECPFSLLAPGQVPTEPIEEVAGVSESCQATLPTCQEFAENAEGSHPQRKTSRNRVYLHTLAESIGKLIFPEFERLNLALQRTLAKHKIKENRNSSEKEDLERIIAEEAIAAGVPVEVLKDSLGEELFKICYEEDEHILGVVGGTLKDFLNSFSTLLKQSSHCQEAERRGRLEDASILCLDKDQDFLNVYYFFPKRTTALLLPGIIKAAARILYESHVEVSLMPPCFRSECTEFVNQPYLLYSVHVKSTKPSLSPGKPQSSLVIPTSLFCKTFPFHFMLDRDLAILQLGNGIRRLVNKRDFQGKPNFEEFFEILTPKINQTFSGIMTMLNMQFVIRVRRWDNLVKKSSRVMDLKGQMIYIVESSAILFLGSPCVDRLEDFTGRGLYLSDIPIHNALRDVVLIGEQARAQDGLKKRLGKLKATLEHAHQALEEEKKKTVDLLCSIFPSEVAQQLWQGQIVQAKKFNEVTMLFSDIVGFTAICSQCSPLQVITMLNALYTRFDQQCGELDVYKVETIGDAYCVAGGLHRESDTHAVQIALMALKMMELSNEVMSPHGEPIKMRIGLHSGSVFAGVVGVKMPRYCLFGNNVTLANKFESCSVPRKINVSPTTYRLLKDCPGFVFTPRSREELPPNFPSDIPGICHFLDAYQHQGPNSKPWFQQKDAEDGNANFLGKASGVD
Assay: B-2. Action on recombinant guanylate cyclase reporter cell line
Format: cell-based
Details: MEC = minimal effective concentration; in some cases mean values from individual determinations
Procedure: B-2. Action on Recombinant Guanylate Cyclase Reporter Cell Line
The cellular action of the compounds according to the invention is determined on a recombinant guanylate cyclase reporter cell line, as described in F. Wunder et al., Anal. Biochem. 339, 104-112 (2005).
Representative MEC values (MEC=minimal effective concentration) for the compounds according to the invention are shown in the following table (in some cases as mean values obtained from individual determinations): […]

Row | MEC [µM] | Compound
1 | 1.00 | Cc1cc(OCc2c(F)cccc2F)c2nc(C)c(C(=O)NCCNC(C)C)n2c1 (racemic) [Example 135, rac-8-[(2,6-difluorobenzyl)oxy]-N-[2-(isopropylamino)ethyl]-2,6-dimethylimidazo[1,2-a]pyridine-3-carboxamide]
2 | 0.10 | CCCC(C)(N)CNC(=O)c1c(C)nc2c(OCc3c(F)cccc3F)cc(CF)cn12 (stereo not drawn) [Example 403, ent-N-(2-amino-2-methylpentyl)-8-[(2,6-difluorobenzyl)oxy]-6-(fluoromethyl)-2-methylimidazo[1,2-a]pyridine-3-carboxamide]
3 | 0.30 | CCC(C)(N)CNC(=O)c1c(C)nc2c(OCc3c(F)cccc3F)cc(Cl)cn12 (racemic) [Example 157, rac-N-(2-amino-2-methylbutyl)-6-chloro-8-[(2,6-difluorobenzyl)oxy]-2-methylimidazo[1,2-a]-pyridine-3-carboxamide]
4 | 0.20 | Cc1cc(OCc2c(F)cccc2F)c2nc(C)c(C(=O)NC(CN)c3ccc(F)c(F)c3)n2c1 (stereo not drawn) [Example 51, ent-N-[2-Amino-1-(3,4-difluorophenyl)ethyl]-8-[(2,6-difluorobenzyl)oxy]-2,6-dimethylimidazo-[1,2-a]pyridine-3-carboxamide]
5 | 1.00 | Cc1cc(OCc2c(F)cccc2F)c2nc(C)c(C(=O)NC(C)C3CCN(C)CC3)n2c1 (racemic) [Example 77, rac-8-[(2,6-difluorobenzyl)oxy]-2,6-dimethyl-N-[1-(1-methylpiperidin-4-yl)ethyl]imidazo[1,2-a]-pyridine-3-carboxamide]
6 | 0.65 | Cc1nc2c(OCc3c(F)cccc3F)cccn2c1C(=O)NCCN1CCOCC1 [Example 89, 8-[(2,6-difluorobenzyl)oxy]-2-methyl-N-[2-(morpholin-4-yl)ethyl]imidazo[1,2-a]pyridine-3-carboxamide]
7 | 3.00 | Cc1cc(OCc2c(F)cccc2F)c2nc(C)c(C(=O)NCC(N)c3ccc4c(c3)OCCO4)n2c1 (racemic) [Example 371, rac-N-[2-amino-2-(2,3-dihydro-1,4-benzodioxin-6-yl)ethyl]-8-[(2,6-difluorobenzyl)oxy]-2,6-dimethylimidazo[1,2-a]pyridine-3-carboxamide]
8 | 3.00 | COCCNCCNC(=O)c1c(C)nc2c(OCc3c(F)cccc3F)cccn12 [Example 144, 8-[(2,6-difluorobenzyl)oxy]-N-{2-[(2-methoxyethyl)amino]ethyl}-2-methylimidazo[1,2-a]pyridine-3-carboxamide]
9 | 0.10 | Cc1cc(OCc2c(F)cccc2F)c2nc(C)c(C(=O)NCC(C)(N)CCC(F)(F)F)n2c1 (single isomer, unassigned; enantiomer a) [Example 408, ent-N-(2-amino-5,5,5-trifluoro-2-methylpentyl)-8-[(2,6-difluorobenzyl)oxy]-2,6-dimethylimidazo[1,2-a]pyridine-3-carboxamide (Enantiomer A)]
10 | 1.00 | Cc1cc(OCc2c(F)cccc2F)c2nc(C)c(C(=O)N[C@@H]3CC[C@](C)(N)C3(C)C)n2c1 [Example 324, N-[(1R,3S)-3-amino-2,2,3-trimethylcyclopentyl]-8-[(2,6-difluorobenzyl)oxy]-2,6-dimethylimidazo[1,2-a]pyridine-3-carboxamide]
11 | 0.10 | Cc1cc(OCc2c(F)cccc2F)c2nc(C)c(C(=O)NCCN(CC(F)F)C3CC3)n2c1 [Example 164, N-{2-[cyclopropyl(2,2-difluoroethyl)amino]ethyl}-8-[(2,6-difluorobenzyl)oxy]-2,6-dimethylimidazo[1,2-a]-pyridine-3-carboxamide]
12 | 1.00 | Cc1nc2c(OCc3c(F)cccc3F)cccn2c1C(=O)NCCNc1ccc(F)cc1 [Example 79, 8-[(2,6-difluorobenzyl)oxy]-N-{2-[(4-fluoro-phenyl)amino]ethyl}-2-methylimidazo[1,2-a]-pyridine-3-carboxamide]
13 | 0.04 | CC[C@](C)(N)CNC(=O)c1c(C)nc2c(OCc3c(F)cccc3F)cc(C)cn12 (single isomer, unassigned) [Example 200]
14 | 0.30 | Cc1cc(OCc2c(F)cccc2F)c2nc(C)c(C(=O)NC3CNCC3C(F)(F)F)n2c1 (mixture of isomers) [Example 313, 8-[(2,6-Difluorobenzyl)oxy]-2,6-dimethyl-N-[4-(trifluoromethyl)pyrrolidin-3-yl]imidazo[1,2-a]pyridine-3-carboxamide (Mixture of Stereoisomers)]
15 | 0.30 | Cc1cc(OCc2c(F)cccc2F)c2nc(C)c(C(=O)N[C@H]3C[C@H]4CN(C)CCN4C3)n2c1 [Example 314, 8-[(2,6-Difluorobenzyl)oxy]-2,6-dimethyl-N-[(7S,8aS)-2-methyloctahydropyrrolo[1,2-a]pyrazin-7-yl]imidazo[1,2-a]pyridine-3-carboxamide]
16 | 0.3 | CCC(C)(N)CNC(=O)c1c(C)nc2c(OCc3c(F)cccc3F)cc(OC)cn12 (single isomer, unassigned; enantiomer a) [Example 279, ent-N-(2-amino-2-methylbutyl)-8-[(2,6-difluorobenzyl)oxy]-6-methoxy-2-methylimidazo[1,2-a]pyridine-3-carboxamide (Enantiomer A)]
17 | 0.30 | Cc1nc2c(OCc3c(F)cccc3F)cccn2c1C(=O)NC1CNCc2ccccc21 (single isomer, unassigned; ent-8) [Example 110, ent-8-[(2,6-difluorobenzyl)oxy]-2-methyl-N-(1,2,3,4-tetrahydroisoquinolin-4-yl)imidazo[1,2-a]pyridine-3-carboxamide]
18 | 3.00 | CCCC(C)(N)CNC(=O)c1c(C)nc2c(OCc3c(F)ccc(C4CC4)c3F)cc(C)cn12 (stereo not drawn) [Example 359, ent-N-(2-amino-2-methylpentyl)-8-[(3-cyclopropyl-2,6-difluorobenzyl)oxy]-2,6-dimethylimidazo[1,2-a]pyridine-3-carboxamide]
19 | 0.30 | Cc1cc(OCc2c(F)cccc2F)c2nc(C)c(C(=O)NCC(C)(N)Cc3nc4ccccc4s3)n2c1 (racemic) [Example 310, rac-N-[2-amino-3-(1,3-benzothiazol-2-yl)-2-methylpropyl]-8-[(2,6-difluorobenzyl)oxy]-2,6-dimethylimidazo[1,2-a]pyridine-3-carboxamide]
20 | 0.30 | Cc1cc(OCc2c(F)cccc2F)c2nc(C)c(C(=O)NC3CCC(N)C3)n2c1 (single isomer, unassigned) [Example 309, ent-N-(3-aminocyclopentyl)-8-[(2,6-difluorobenzyl)oxy]-2,6-dimethylimidazo[1,2-a]pyridine-3-carboxamide]
21 | 1.00 | Cc1nc2c(OCc3c(F)cccc3F)cccn2c1C(=O)NCC(C(C)C)N(C)C (racemic) [Example 142, rac-8-[(2,6-difluorobenzyl)oxy]-N-[2-(dimethyl-amino)-3-methylbutyl]-2-methylimidazo[1,2-a]-pyridine-3-carboxamide]

Row | Compound | MEC [µM]
22 | Cc1nc2c(OCc3c(F)cccc3F)cccn2c1C(=O)NC1CC2CCCC(C1)N2 (stereo not shown) [Example 27, N-(9-azabicyclo[3.3.1]non-3-yl)-8-[(2,6-difluorobenzyl)oxy]-2-methylimidazo[1,2-a]-pyridine-3-carboxamide] | 1.00
